Patent US6642392B1 (priority 1997, dated 2003)

Key:
Type in all cases: in vivo
[1] = tested on: Eiysiphe graminis f. sp. tritici; assay: Test A: wheat powdery mildew, preventive spray on wheat seedlings; details: for Test A disease control rating: wheat powdery mildew, 100 = 100% disease control, 0 = no control relative to controls, unmarked entries (standard test concentration); for Test A disease control rating (100 = 100% disease control, 0 = no disease control): wheat seedlings sprayed to run-off, inoculated the following day, rating relative to controls, unmarked compounds (standard test rate)
Protocol: (§1) The resulting test suspensions were then used in the following tests. […]
The test suspension was sprayed to the point of run-off on wheat seedlings. The following day the seedlings were inoculated with a spore dust of Eiysiphe graminis f. sp. tritici, (the causal agent of wheat powdery mildew) and incubated in a growth chamber at 20° C. for 7 days, after which disease ratings were made.
(§2) Results for Tests A-E are given in Table A. In the table, a rating of 100 indicates 100% disease control and a rating of 0 indicates no disease control (relative to the controls). A dash (-) indicates no test results. ND indicates disease control not determined due to phytotoxicity.

[2] = tested on: Puccinia recondita; assay: Test B: wheat leaf rust, preventive spray on wheat seedlings; details: for Test B disease control rating: wheat leaf rust, 100 = 100% disease control, 0 = no control, unmarked entries (standard test concentration); for Test B disease control rating (100 = 100% disease control, 0 = no disease control): wheat seedlings sprayed to run-off, inoculated the following day, rating relative to controls, unmarked compounds (standard test rate)
Protocol: as §1
(§3) The test suspension was sprayed to the point of run-off on wheat seedlings. The following day the seedlings were inoculated with a spore suspension of Puccinia recondita (the causal agent of wheat leaf rust) and incubated in a saturated atmosphere at 20° C. for 24 h, and then moved to a growth chamber at 20° C. for 6 days, after which disease ratings were made.
as §2

[3] = tested on: Pyricularia oryzae; details: for Test C disease control rating: rice blast, 100 = 100% disease control, 0 = no control, unmarked entries (standard test concentration); for Test C disease control rating (100 = 100% disease control, 0 = no disease control): rice seedlings sprayed to run-off, inoculated the following day, rating relative to controls, unmarked compounds (standard test rate)
[4] = tested on: Phytophthora infestans; details: for Test D disease control rating: tomato late blight, 100 = 100% disease control, 0 = no control, unmarked entries (standard test concentration); for Test D disease control rating (100 = 100% disease control, 0 = no disease control): tomato seedlings sprayed to run-off, inoculated the following day, rating relative to controls, unmarked compounds (standard test rate)
[5] = tested on: Botrytis cinerea; assay: Test E: gray mold, preventive spray on cucumber seedlings; details: for Test E disease control rating: gray mold on cucumber, 100 = 100% disease control, 0 = no control, unmarked entries (standard test concentration)
Protocol: The resulting test suspensions were then used in the following tests. Spraying these 200 ppm test suspensions to the point of run-off on the test plants is the equivalent of a rate of 500 g/ha.
as §3, with “cucumber” for “wheat”, “Botrytis cinerea” for “Puccinia recondita”, “gray mold on many crops)” for “wheat leaf rust)”, “48” for “24”, “and” for “and then”, “5” for “6”
as §2

| Compound | Test A disease control rating [1] [%] | Test B disease control rating [2] [%] | Test C disease control rating [3] [%] | Test D disease control rating [4] [%] | Test E disease control rating [5] [%] | Test A disease control rating (100 = 100% disease control, 0 = no disease control) [1] [%] | Test B disease control rating (100 = 100% disease control, 0 = no disease control) [2] [%] | Test C disease control rating (100 = 100% disease control, 0 = no disease control) [3] [%] | Test D disease control rating (100 = 100% disease control, 0 = no disease control) [4] [%] | Test E disease control rating (100 = 100% disease control, 0 = no disease control) ([5]; cucumber seedlings sprayed to run-off, inoculated the following day, rating relative to controls, unmarked compounds (standard test rate)) [%] |
| --- | --- | --- | --- | --- | --- | --- | --- | --- | --- | --- |
| C[C@H](COc1cc(Cl)ccc1F)NC(=O)C(C#N)C(C)(C)C (single isomer, unassigned) [198a] | 75 | 28 | 100 | 5 |  |  |  |  |  |  |
| CC(COc1cccc(Cl)c1C#N)NC(=O)C(C#N)C(C)C(C)(C)C (mixture of isomers) [compound 64] | 0 | 0 | 53 | 2 | 0 |  |  |  |  |  |
| C[C@H](COc1cc(F)cc(F)c1)NC(=O)C(C#N)C(C)(C)C (single isomer, unassigned) [184a] | 62 | 0 | 74 | 0 | 6 |  |  |  |  |  |
| C=CC(C)(CC)C(C#N)C(=O)NC(C)COc1cc(F)ccc1Cl (mixture of isomers) [compound 298] |  |  |  |  |  | 62 | 0 | 99 | 99 | 0 |
| CCC1(C(=O)NC(C)COc2ccccc2C#N)C(C)C1(Cl)Cl (mixture of isomers) [89a] | 0 | 0 | 74 | 20 | 0 |  |  |  |  |  |
| CC(COc1c(Br)cc(F)cc1Br)NC(=O)C(C#N)C(C)(C)C (mixture of isomers) [compound 196] | 0 | 0 | 86 | 0 |  |  |  |  |  |  |
| CC(COc1c(F)c(F)cc(F)c1F)NC(=O)C(C#N)C(C)(C)C (mixture of isomers) [compound 195] | 85 | 0 | 99 | 32 |  |  |  |  |  |  |
| CC(COc1c(Cl)cc(F)cc1Cl)NC(=O)C(C#N)C(C)(C)C (mixture of isomers) [compound 197] | 59 | 0 | 86 | 0 |  |  |  |  |  |  |
| CCC1(C(=O)NC(C)COc2ccccc2C#N)C(C)C1(Cl)Cl (mixture of isomers) [89b] | 26 | 68 | 91 |  | 47 |  |  |  |  |  |
| CCC1(C(=O)NC(C)COc2cc(F)ccc2Cl)C(C)C1(Cl)Cl (centres unmarked) [compound 253] |  |  |  |  |  | 59 | 0 | 100 | 0 |  |
| C=CC(C)(C)C(C#N)C(=O)N[C@H](C)COc1cc(Cl)ccc1F (single isomer, unassigned) [200a] | 0 | 0 | 100 | 5 |  |  |  |  |  |  |
| CCC1(C(=O)NC(C)COc2ccccc2F)C(C)C1(Cl)Cl (mixture of isomers) [78b] | 84 | 0 | 99 |  | 0 |  |  |  |  |  |
| C=CC(C)(C)C(C#N)C(=O)N[C@H](C)COc1cc(Cl)ccc1F (single isomer, unassigned) [200b] | 0 | 0 | 100 | 5 |  |  |  |  |  |  |
| CC(COc1cc(Cl)ccc1F)NC(=O)C(C#N)C(C)(C)C=CF (mixture of isomers) [compound 224] |  |  |  |  |  | 85 | 0 | 100 | 5 |  |
| C[C@H](COc1cc(Cl)ccc1F)NC(=O)C(C#N)C(C)(C)C (single isomer, unassigned) [198b] | 59 | 28 | 100 | 5 |  |  |  |  |  |  |
| CCC1(C(=O)NCCCn2c(Cl)ccc2C#N)C(C)C1(Cl)Cl (centres unmarked) [compound 152] | 55 | 68 | 86 |  | 0 |  |  |  |  |  |
| CCC1(C(=O)NC(C)COc2ccc(F)c(F)c2F)C(C)C1(Cl)Cl (centres unmarked) [compound 238] |  |  |  |  |  | 62 | 0 | 74 | 0 |  |
| CCCc1ccccc1OCC(C)NC(=O)C(C#N)C(C)(C)C (mixture of isomers) [21b] | 37 | 27 | 99 |  | 0 |  |  |  |  |  |
| CCC1(C(=O)NC(C)COc2cc(Cl)ccc2F)C(C)C1(Cl)Cl (centres unmarked) [compound 252] |  |  |  |  |  | 0 | 0 | 99 | 5 |  |
| C#CC(C)(C)C(C#N)C(=O)NC(C)COc1cc(Cl)ccc1F (mixture of isomers) [compound 320] |  |  |  |  |  | 59 | 68 | 100 | 0 |  |
| Cc1ccc(F)c(OCC(C)NC(=O)C(C#N)C(C)(C=CF)CF)c1 (mixture of isomers) [compound 226] |  |  |  |  |  | 0 | 0 | 100 | 0 |  |
| CCC1(C(=O)NC(C)COc2cc(F)c(F)cc2Br)C(C)C1(Cl)Cl (centres unmarked) [compound 235] |  |  |  |  |  | 0 | 0 | 91 | 0 |  |
| CCC1(C(=O)NCCCn2c(C#N)cc(Cl)c2Cl)C(C)C1(Cl)Cl (centres unmarked) [compound 151] | 0 | 0 | 91 |  | 0 |  |  |  |  |  |
| CC(COc1cc(F)ccc1OC(F)(F)C(F)F)NC(=O)C(C#N)C(C)(C=CF)CF (mixture of isomers) [compound 225] |  |  |  |  |  | 91 | 86 | 100 | 5 |  |
| CCC1(C(=O)NC(C)COc2cccc(Br)c2)C(C)C1(Cl)Cl (mixture of isomers) [85a] | 55 | 0 | 53 |  | 0 |  |  |  |  |  |
| Cc1ccc(Cl)c(OCC(C)NC(=O)C(C#N)C(C)(C=CF)CF)c1 (mixture of isomers) [compound 227] |  |  |  |  |  | 0 | 0 | 100 | 0 |  |
| CCC1(C(=O)NC(C)COc2ccccc2)C(C)C1(Cl)Cl (mixture of isomers) [77a] | 73 | 28 | 86 |  | 0 |  |  |  |  |  |
| CC(COc1cc(Cl)ccc1F)NC(=O)C(C#N)C(C)C(C)(C)C (mixture of isomers) [compound 199] | 85 | 68 | 97 | 5 |  |  |  |  |  |  |
